From US20010012854A1, “MULTICATALYTIC PROTEASE INHIBITORS FOR USE AS ANTI-TUMOR AGENTS” (priority 1997, published 2001) come the findings set out here.

SMILES strings stand for the structures.

For test [1], the system named is Bcl-2-overexpressing Jurkat cells. The test is described as follows: Apoptosis in Bcl-2-overexpressing Jurkat cells (nuclear staining, western blot). Format: cell-based, human. On the procedure:
b. Cell culture. Human Jurkat T and HL-60 cells were grown in RPMI 1640 (Life Technologies, Inc.) supplemented with 10% fetal calf serum (Sigma), 100 units/ml of penicillin, 100 μg/ml of streptomycin and 2mM L-glutamine (growth medium). Jurkat T. cells overexpressing the Bcl-2 oncoprotein or vector alone (provided by Dr. D. Johnson, University of Pittsburgh, Pa.) were grown in the same growth medium with […] G418. Human cancer cell lines of breast (MCF-7, MDA-MB-231), prostate (DU145, PC3) and osteosarcoma (U2-OS), obtained from American Type Culture Collection (ATCC. Rockville, Md.)), were also grown in the RPMI growth medium. Human oral (SCC-25; from ATCC) and brain (SNB-19; Welch, W. C., et al. In Vitro Cell. Dev. Biol., 31:610-616, 1995) cancer cell lines, and normal (WI-38) and SV40-transformed human fibroblasts (WI-38 VA-13; from ATCC) were grown in DMEM medium containing 10% fetal calf serum, penicillin, streptomycin and L-glutamine.
(§1) d. Flow cytometry nuclear staining and DNA fragmentation assays. DNA content analysis using flow cytometry was performed as described previously (Nicoletti, I., et al. J. Immunol. Methods 139:271-279, 1992). To assay nuclear morphology, cells were washed with PBS, fixed with 70% ethanol for 1 h, and stained with Hoechst 33258 (1 mM) for 30 min. The nuclear morphology of cells was visualized by fluorescence microscope (OLYMPUS BH2). DNA fragmentation was assayed as described previously (Grant, S., et al. Cancer Res. 52:6270-6278, 1992).
e. Whole cell extracts and western blot assay. To prepare whole cell extracts, cells were washed with PBS, and homogenized in lysis buffer (50 mM Tris, pH 8.0, 5 mM EDTA, 150 mM NaCl, 0.5% Nonidet P-40, 0.5 mM PMSF and 0.5 mM dithiothreitol). Following 30 min rocking at 4° C., the lysates were centrifuged and the supernatants were collected as whole cell extracts. The protein samples were then analyzed by sodium dodecyl sulfate-6% polyacrylamide gel electrophoresis (20-60 μg protein per lane) followed by the enhanced chemiluminescence Western blot assay using specific antibodies to CPP32, PARP, p21, p27 or RB.
It has been shown that overexpression of Bcl-2 oncoprotein inhibits apoptosis in many cell systems (Miura, M., et al., J. Cell 75: 653-660, 1993). Bcl-2 expression in human Jurkat T cells for inhibition of Compound A-induced apoptosis was investigated.
In general terms: Immunoblotting shows a protein as a band on a membrane.

Test [2] deals with human Jurkat T cells. The test is described as follows: Apoptosis in Jurkat T cells (flow cytometry sub-G1 DNA content, DNA fragmentation). Type of test: cell-based. Conditions: Jurkat T cells. On the procedure:
c. Treatment of cells with MCP inhibitor. Cells were treated with a specified MCP Inhibitor, a standard anticancer agent (etoposide or cisplatin), or DMSO (vehicle). During this process, morphological changes and cellular detachment (for attached cell lines) were monitored. At each time point, cells were harvested, and used for measurement of apoptosis and other biochemical events. In Example 1, infra, involving YVAD-CMK, Compound A was first added to Jurkat T cells. This was followed immediately by dividing the cells into multiple tissue culture flasks. YVAD-CMK was then added to an indicated concentration.
as §1
Example 1 was designed to determine if MCP is involved in the survival signaling pathway(s) and if inhibition of MCP activity induces apoptosis. Human Jurkat T cells were treated with 30 μM Compound A for 4 h. […] Both the p112 and p115 forms of RB as p112-115/RB were combined and used as an apoptosis marker.
When human Jurkat T cells were treated with 15 μM Compound A for 8 h, there was a 23% increase in the apoptotic population with sub-G1 DNA content (FIG. 2, panels b vs. a). By comparison, when Compound B was used, only an 8%-increase in sub-G1 population was detected (FIG. 2, panels c vs. a).

With `CC(C)C[C@@H](C=O)NC(=O)[C@@H](CCCNC(=N)N[N+](=O)[O-])NC(=O)C(CCCCCCCCN1C(=O)c2ccccc2C1=O)C1CCCC1` (some centres unmarked) [Compound A], the “Effect of Bcl-2 overexpression on induced PARP cleavage and p112-115/RB production” value in test [1] (15 μM) was “failed to block cleavage of PARP and production of p112-115/RB”. Besides, the “Effect of Bcl-2 expression on induced apoptotic nuclear changes” value in test [1] (15 μM, 8 h) is listed as “did not inhibit the apoptotic nuclear changes”. For the same molecule, the “Cells exhibiting apoptosis-specific nuclear morphology” value in test [1] (Bcl-2-overexpressing Jurkat, 30 μM, 3.5 h) is given as about 100%. For the same molecule, the “Increase in the apoptotic population with sub-G1 DNA content” value in test [2] (15 μM, 8 h) came to 23%. Besides, the “Induction of apoptosis (sub-G1 DNA content, nuclear condensation/fragmentation, internucleosomal DNA fragmentation)” value in test [2] (30 μM, 4 h) is “apoptosis occurred”.
